Assay results published in patent publication US20260265251A1 (priority 2023, published 2026).

These compounds were tested on SK-MEL-3 cells (assay: SK-MEL-3 cell proliferation assay). Conditions: Homo sapiens, SK-MEL3, 72 h, read-out: SK-MEL-3 IC50.
Format: cell-based
In the case of `N#Cc1ccc(N2CCc3nc4[nH]c(=O)[nH]c4cc3C2)cc1F` [Example 53, 7-(3-fluoro-4-cyanophenyl)-1,3,5,6,7,8-hexahydro-2H-imidazo[4,5-b][1,6]naphthyridin-2-one], the IC50 is reported as 9.6 nM.

Same assay, conditions: Homo sapiens, SK-MEL3; SK-MEL-3 cells, 72 hours, CellTiter-Glo; read-out: SK-MEL-3 IC50
Compound `O=c1[nH]c2cc3cc(-c4cn(C(F)F)nc4C(F)(F)F)ccc3nc2[nH]1` [Example 31, 7-(1-(difluoromethyl)-3-(trifluoromethyl)-1H-pyrazol-4-yl)-1,3-dihydro-2H-imidazo[4,5-b]quinolin-2-one] has an IC50 of 2.5 nM. Compound `O=c1[nH]c2cc3cc(-c4c(Cl)ncn4C(F)F)ccc3nc2[nH]1` [Example 38, 7-(4-chloro-1-(difluoromethyl)-1H-imidazol-5-yl)-1,3-dihydro-2H-imidazo[4,5-b]quinolin-2-one] has an IC50 of 4.7 nM. `O=c1[nH]c2cc3c(nc2[nH]1)CCN(c1ccc(C(F)F)cc1Cl)C3` [Example 46, 7-(2-chloro-4-(difluoromethyl)phenyl)-1,3,5,6,7,8-hexahydro-2H-imidazo[4,5-b][1,6]naphthyridin-2-one] was tested, and the IC50 was 1.2 nM. `O=c1[nH]c2cc3c(nc2[nH]1)CCN(c1ccc(Cl)cc1Cl)C3` [Example 47, 7-(2,4-dichlorophenyl)-1,3,5,6,7,8-hexahydro-2H-imidazo[4,5-b][1,6]naphthyridin-2-one] was tested, and the IC50 was 2.7 nM. `O=c1[nH]c2cc3c(nc2[nH]1)CCN(c1cccc(F)c1)C3` [Example 49, 7-(3-fluorophenyl)-1,3,5,6,7,8-hexahydro-2H-imidazo[4,5-b][1,6]naphthyridin-2-one] gave an IC50 of 1.8 nM. `O=c1[nH]c2cc3c(nc2[nH]1)CCN(c1cn(C(F)F)nc1Cl)C3` [Example 51, 7-(3-chloro-1-(difluoromethyl)-1H-pyrazol-4-yl)-1,3,5,6,7,8-hexahydro-2H-imidazo[4,5-b][1,6]naphthyridin-2-one] was tested, and the IC50 was 74.9 nM. With `N#Cc1ccc(N2CCc3nc4[nH]c(=O)[nH]c4cc3C2)c(F)c1` [Example 52, 7-(2-fluoro-4-cyanophenyl)-1,3,5,6,7,8-hexahydro-2H-imidazo[4,5-b][1,6]naphthyridin-2-one] the IC50 was 4.1 nM. `O=c1[nH]c2cc3c(nc2[nH]1)CCN(c1ccc(OC(F)(F)F)cc1Cl)C3` [Example 54, 7-(2-chloro-4-(trifluoromethoxy)phenyl)-1,3,5,6,7,8-hexahydro-2H-imidazo[4,5-b][1,6]naphthyridin-2-one] gave an IC50 of 198 nM. In the case of `O=c1[nH]c2cc3c(nc2[nH]1)CCN(c1cccc(OC(F)(F)F)c1)C3` [Example 55, 7-(3-(trifluoromethoxy)phenyl)-1,3,5,6,7,8-hexahydro-2H-imidazo[4,5-b][1,6]naphthyridin-2-one], the IC50 is reported as 15.6 nM. `N#Cc1cnc(N2CCc3nc4[nH]c(=O)[nH]c4cc3C2)c(Cl)c1` [Example 56, 7-(3-chloro-5-cyanopyridin-2-yl)-1,3,5,6,7,8-hexahydro-2H-imidazo[4,5-b][1,6]naphthyridin-2-one] showed an IC50 of 10.6 nM. Work on `O=c1[nH]c2cc3c(nc2[nH]1)CCN(c1cccc(Cl)c1)C3` [Example 59, 7-(3-chlorophenyl)-1,3,5,6,7,8-hexahydro-2H-imidazo[4,5-b][1,6]naphthyridin-2-one] yielded an IC50 of 2.3 nM. Compound `O=c1[nH]c2cc3c(Cl)c(-c4ccccc4)ccc3nc2[nH]1` [Example 65, 8-chloro-7-phenyl-1,3-dihydro-2H-imidazo[4,5-b]quinolin-2-one] has an IC50 of 0.8 nM. `O=c1[nH]c2cc3c(Cl)c(-c4ccc(F)cc4)ccc3nc2[nH]1` [Example 66, 8-chloro-7-(4-fluorophenyl)-1,3-dihydro-2H-imidazo[4,5-b]quinolin-2-one] showed an IC50 of 0.9 nM. In the case of `O=c1[nH]c2cc3c(Cl)c(-c4ccc(C(F)F)cc4)ccc3nc2[nH]1` [Example 67, 8-chloro-7-(4-(difluoromethyl)phenyl)-1,3-dihydro-2H-imidazo[4,5-b]quinolin-2-one], the IC50 is reported as 0.4 nM. Work on `Cc1ccc(-c2ccc3nc4[nH]c(=O)[nH]c4cc3c2F)cc1` [Example 68, 8-fluoro-7-(p-tolyl)-1,3-dihydro-2H-imidazo[4,5-b]quinolin-2-one] yielded an IC50 of 2 nM. `Cc1ccc(-c2cc3cc4[nH]c(=O)[nH]c4nc3cc2Cl)cc1` [Example 69, 6-chloro-7-(p-tolyl)-1,3-dihydro-2H-imidazo[4,5-b]quinolin-2-one] showed an IC50 of 9.7 nM. For `Cc1ccc(-c2ccc3nc4[nH]c(=O)[nH]c4cc3c2Cl)nc1` [Example 70, 8-chloro-7-(5-methylpyridin-2-yl)-1,3-dihydro-2H-imidazo[4,5-b]quinolin-2-one], the IC50 was 2.9 nM. In the case of `O=c1[nH]c2cc3c(Cl)c(-c4ncc(F)cn4)ccc3nc2[nH]1` [Example 71, 8-chloro-7-(5-fluoropyrimidin-2-yl)-1,3-dihydro-2H-imidazo[4,5-b]quinolin-2-one], the IC50 is reported as 8.2 nM. With `COc1ccc(-c2ccc3nc4[nH]c(=O)[nH]c4cc3c2Cl)cn1` [Example 72, 8-chloro-7-(6-methoxypyridin-3-yl)-1,3-dihydro-2H-imidazo[4,5-b]quinolin-2-one] the IC50 was 1 nM. In the case of `O=c1[nH]c2cc3c(Cl)c(-c4ccc(Cl)nn4)ccc3nc2[nH]1` [Example 73, 8-chloro-7-(6-chloropyridazin-3-yl)-1,3-dihydro-2H-imidazo[4,5-b]quinolin-2-one], the IC50 is reported as 1.6 nM. For `O=c1[nH]c2cc3c(Cl)c(-c4ccc(C(F)F)cn4)ccc3nc2[nH]1` [Example 74, 8-chloro-7-(5-(difluoromethyl)pyridin-2-yl)-1,3-dihydro-2H-imidazo[4,5-b]quinolin-2-one], the IC50 was 0.7 nM. Work on `N#Cc1ccc(-c2ccc3nc4[nH]c(=O)[nH]c4cc3c2Cl)cc1` [Example 75, 8-chloro-7-(4-cyanophenyl)-1,3-dihydro-2H-imidazo[4,5-b]quinolin-2-one] yielded an IC50 of 0.5 nM. `O=c1[nH]c2cc3c(Cl)c(N4CC5(CCC5)C4)ccc3nc2[nH]1` [Example 76, 8-chloro-7-(2-azaspiro[3.3]heptan-2-yl)-1,3-dihydro-2H-imidazo[4,5-b]quinolin-2-one] was tested, and the IC50 was 2.3 nM. With `O=c1[nH]c2cc3c(OC(F)F)c(-c4ccc(F)cc4)ccc3nc2[nH]1` [Example 77, 8-(difluoromethoxy)-7-(4-fluorophenyl)-1,3-dihydro-2H-imidazo[4,5-b]quinolin-2-one] the IC50 was 4.4 nM. For `COc1c(-c2ccc(F)cc2)ccc2nc3[nH]c(=O)[nH]c3cc12` [Example 78, 8-(methoxy)-7-(4-fluorophenyl)-1,3-dihydro-2H-imidazo[4,5-b]quinolin-2-one], the IC50 was 0.9 nM. `Cc1ccc(-c2ccc3nc4[nH]c(=O)[nH]c4cc3c2C(F)(F)F)cc1` [Example 79, 7-(p-tolyl)-8-(trifluoromethyl)-1,3-dihydro-2H-imidazo[4,5-b]quinolin-2-one] gave an IC50 of 0.4 nM. Compound `O=c1[nH]c2cc3c(C(F)(F)F)c(-c4ccccc4)ccc3nc2[nH]1` [Example 80, 7-phenyl-8-(trifluoromethyl)-1,3-dihydro-2H-imidazo[4,5-b]quinolin-2-one] has an IC50 of 0.5 nM. For `O=c1[nH]c2cc3c(Cl)c(N4CCC5(CC4)CC5)ccc3nc2[nH]1` [Example 81, 8-chloro-7-(6-azaspiro[2.5]octan-6-yl)-1,3-dihydro-2H-imidazo[4,5-b]quinolin-2-one], the IC50 was 9.7 nM. Work on `CCC1=CCN(c2ccc3nc4[nH]c(=O)[nH]c4cc3c2Cl)CC1` [Example 82, 8-chloro-7-(4-ethyl-3,6-dihydropyridin-1(2H)-yl)-1,3-dihydro-2H-imidazo[4,5-b]quinolin-2-one] yielded an IC50 of 509 nM. In the case of `O=c1[nH]c2cc3c(Cl)c(-c4ccc(F)cc4Cl)ccc3nc2[nH]1` [Example 83, 8-chloro-7-(2-chloro-4-fluorophenyl)-1,3-dihydro-2H-imidazo[4,5-b]quinolin-2-one], the IC50 is reported as 0.4 nM. In the case of `O=c1[nH]c2cc3c(C(F)(F)F)c(-c4ccc(F)cc4)ccc3nc2[nH]1` [Example 84, 7-(4-fluorophenyl)-8-(trifluoromethyl)-1,3-dihydro-2H-imidazo[4,5-b]quinolin-2-one], the IC50 is reported as 1.2 nM. With `COc1c(-c2ccc(F)cc2Cl)ccc2nc3[nH]c(=O)[nH]c3cc12` [Example 85, 7-(2-chloro-4-fluorophenyl)-8-methoxy-1,3-dihydro-2H-imidazo[4,5-b]quinolin-2-one] the IC50 was 0.3 nM. With `O=c1[nH]c2cc3c(Cl)c(-n4ccc(C(F)(F)F)n4)ccc3nc2[nH]1` [Example 90, 8-chloro-7-(3-(trifluoromethyl)-1H-pyrazol-1-yl)-1,3-dihydro-2H-imidazo[4,5-b]quinolin-2-one] the IC50 was 3.4 nM. `COc1ncc(N2CCc3nc4[nH]c(=O)[nH]c4cc3C2)cc1C(F)(F)F` [Example 91, 7-(6-methoxy-5-(trifluoromethyl)pyridin-3-yl)-1,3,5,6,7,8-hexahydro-2H-imidazo[4,5-b][1,6]naphthyridin-2-one] was tested, and the IC50 was 281 nM. `Cc1ccc(-c2ccc3nc4[nH]c(=O)[nH]c4nc3c2Cl)cc1` [Example 92, 5-chloro-6-(p-tolyl)-1,3-dihydro-2H-imidazo[4,5-b]quinoxalin-2-one] gave an IC50 of 88.2 nM. With `Cn1c(=O)[nH]c2nc3ccc(-c4ccc(F)cc4)c(Cl)c3cc21` [Example 93, 8-chloro-7-(4-fluorophenyl)-1-methyl-1,3-dihydro-2H-imidazo[4,5-b]quinolin-2-one] the IC50 was 8.7 nM. In the case of `Cc1ccc(-c2ccc3nc4[nH]c(=O)oc4cc3c2Cl)cc1` [Example 94, 8-chloro-7-(p-tolyl)oxazolo[4,5-b]quinolin-2(3H)-one], the IC50 is reported as 258 nM. `Cc1ccc(-c2ccc3nc4c(cc3c2Cl)C(=O)C(=O)N4)cc1` [Example 95, 5-chloro-6-(p-tolyl)-1H-pyrrolo[2,3-b]quinolin-2,3-dione] was tested, and the IC50 was 55.5 nM.

What follows are compounds tested on A2058 cells (assay: A2058 cell proliferation assay). Conditions: Homo sapiens, 96 hours, CellTiter-Glo.
Format: cell-based
Compound `O=c1[nH]c2cc3cc(-c4ncn(C(F)F)c4Cl)ccc3nc2[nH]1` [Example 37, 7-(5-chloro-1-(difluoromethyl)-1H-imidazol-4-yl)-1,3-dihydro-2H-imidazo[4,5-b]quinolin-2-one] has an IC50 of 1 nM. With `O=c1[nH]c2cc3cc(-c4ccc(Cl)nc4OC(F)F)ccc3nc2[nH]1` [Example 39, 7-(6-chloro-2-(difluoromethoxy)pyridin-3-yl)-1,3-dihydro-2H-imidazo[4,5-b]quinolin-2-one] the IC50 was 3.3 nM. `CNc1ccc(-c2ccc3nc4[nH]c(=O)[nH]c4cc3c2)c(Cl)n1` [Example 40, 7-(2-chloro-6-(methylamino)pyridin-3-yl)-1,3-dihydro-2H-imidazo[4,5-b]quinolin-2-one] showed an IC50 of 8 nM.
